Measurements from patent publication US20250215010A1, “DIAZABICYCLOOCTANE DERIVATIVES USEFUL AS MATRIX METALLOPROTEINASE INHIBITORS” (VASA THERAPEUTICS SPOLKA Z OGRANICZONA ODPOWIEDZIALNOSCIA, priority 2022, published 2025).
Read-outs that look alike come from different tables or passages of the source.

What was measured:
Type in all cases: biochemical
MMP2 = molecular target: T1, MMP2 (Homo sapiens, UniProt P08253); assay: MMP-2 colorimetric inhibition assay (Enzo kit BML-AK408)
T1 sequence (P08253 110-660): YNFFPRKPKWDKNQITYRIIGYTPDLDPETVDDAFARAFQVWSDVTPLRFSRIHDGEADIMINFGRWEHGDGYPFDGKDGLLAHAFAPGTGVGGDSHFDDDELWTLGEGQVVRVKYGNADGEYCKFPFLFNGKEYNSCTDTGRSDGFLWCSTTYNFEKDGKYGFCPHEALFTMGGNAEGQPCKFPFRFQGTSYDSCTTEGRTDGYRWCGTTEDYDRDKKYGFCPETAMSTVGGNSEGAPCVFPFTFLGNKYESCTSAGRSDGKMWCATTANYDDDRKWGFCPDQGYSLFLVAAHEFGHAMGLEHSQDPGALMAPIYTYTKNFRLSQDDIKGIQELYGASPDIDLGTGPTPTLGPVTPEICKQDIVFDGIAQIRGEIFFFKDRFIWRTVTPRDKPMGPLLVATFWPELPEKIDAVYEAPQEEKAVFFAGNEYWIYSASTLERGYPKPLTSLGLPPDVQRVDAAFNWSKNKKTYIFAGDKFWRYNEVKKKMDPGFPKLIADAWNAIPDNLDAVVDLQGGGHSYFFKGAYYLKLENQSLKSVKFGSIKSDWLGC
Method: (§1) The inhibitory activities of the compounds of the invention were assessed in 96-well microplate format using MMP1, MMP2, MMP9 and MMP13 colorimetric assay kits and TACE fluorometric assay kit from Enzo Life Sciences, Inc. The inhibitory effect of the compounds of the invention on ADAM10 activity were evaluated in 96-well microplate format using fluorometric assay from AnaSpec, Inc.
(§2) The MMP-2 Colorimetric Drug Discovery Kit (catalog #BML-AK408) is a complete assay system designed to screen MMP-2 inhibitors using a thiopeptide as a chromogenic substrate (Ac-PLG-[2-mercapto-4-methylpentanoyl]-LG-OC2H5). The MMP cleavage site peptide bond is replaced by a thioester bond in the thiopeptide. Hydrolysis of this bond by an MMP produces a sulfhydryl group, which reacts with DTNB [5,5′-dithiobis(2-nitrobenzoic acid), Ellman's reagent] to form 2-nitro-5-thiobenzoic acid, that can be detected spectrophotometrically.
(§3) The inhibitory activities of the compounds of the invention against MMP1, MMP2, MMP9 and MMP13 were tested according to the manufacturer's assay protocols and the absorbance at 415 nm was monitored using the Tecan Infinite® 200 Pro F Nano^+ microplate reader.
(§4) The normalized values were analyzed using GraphPadPrism 9 for Windows (GraphPad Software, San Diego, CA, USA) software by plotting inhibition curves and determining the IC50 values (in nM).

MMP9 = MMP9 (Homo sapiens, UniProt P14780); assay: MMP-9 colorimetric inhibition assay (Enzo kit BML-AK410)
Chain of MMP9 (P14780 94-707): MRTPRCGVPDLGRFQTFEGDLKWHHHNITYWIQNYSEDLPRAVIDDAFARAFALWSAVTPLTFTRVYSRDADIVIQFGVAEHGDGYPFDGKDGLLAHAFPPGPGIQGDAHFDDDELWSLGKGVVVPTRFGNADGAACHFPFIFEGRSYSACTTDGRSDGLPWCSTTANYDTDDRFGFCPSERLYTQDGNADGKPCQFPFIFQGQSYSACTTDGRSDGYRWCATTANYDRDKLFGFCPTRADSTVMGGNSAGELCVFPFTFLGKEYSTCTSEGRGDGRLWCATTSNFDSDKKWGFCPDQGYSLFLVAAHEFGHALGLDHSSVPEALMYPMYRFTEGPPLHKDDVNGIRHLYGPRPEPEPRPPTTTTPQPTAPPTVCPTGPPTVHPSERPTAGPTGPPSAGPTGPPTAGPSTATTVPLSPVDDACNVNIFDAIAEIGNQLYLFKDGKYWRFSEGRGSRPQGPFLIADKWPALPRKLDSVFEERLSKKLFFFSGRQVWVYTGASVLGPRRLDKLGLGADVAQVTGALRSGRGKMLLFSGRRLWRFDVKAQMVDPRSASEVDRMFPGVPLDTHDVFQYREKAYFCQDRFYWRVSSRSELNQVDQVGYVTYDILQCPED
Method: as §1
as §2, with “MMP-9” for “MMP-2”, “#BML-AK410)” for “#BML-AK408)”, “screen” for “screen MMP-2”, “inhibitors of matrix metalloproteinase-9” for “inhibitors”
as §3, §4

MMP13 = molecular target: T2, MMP13 (Homo sapiens, UniProt P45452); assay: MMP-13 colorimetric inhibition assay (Enzo kit BML-AK412)
T2 construct: purchased Enzo Life Sciences, Inc. BML-AK412
Method: as §1
as §2, with “MMP-13” for “MMP-2”, “#BML-AK412)” for “#BML-AK408)”, “screen” for “screen MMP-2”, “inhibitors of matrix metalloproteinase-13” for “inhibitors”
as §3, §4

MMP1 = molecular target: T3, MMP1 (Homo sapiens, UniProt P03956); assay: MMP-1 colorimetric inhibition assay (Enzo kit BML-AK404)
T3 sequence (P03956 100-269 limits assumed): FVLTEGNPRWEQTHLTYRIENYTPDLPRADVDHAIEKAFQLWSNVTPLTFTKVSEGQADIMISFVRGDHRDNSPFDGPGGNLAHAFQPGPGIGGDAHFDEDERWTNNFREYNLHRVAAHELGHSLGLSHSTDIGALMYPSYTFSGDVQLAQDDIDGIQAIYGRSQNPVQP
Method: as §1
as §2, with “MMP-1” for “MMP-2”, “#BML-AK404)” for “#BML-AK408)”, “screen” for “screen MMP-2”, “inhibitors of matrix metalloproteinase-1” for “inhibitors”
as §3, §4

ADAM17 (TACE) = ADAM17 (TACE) (Homo sapiens, UniProt P78536); assay: TACE fluorometric inhibition assay (Enzo kit BML-AK310)
Chain of ADAM17 (TACE) (P78536 215-477 limits assumed): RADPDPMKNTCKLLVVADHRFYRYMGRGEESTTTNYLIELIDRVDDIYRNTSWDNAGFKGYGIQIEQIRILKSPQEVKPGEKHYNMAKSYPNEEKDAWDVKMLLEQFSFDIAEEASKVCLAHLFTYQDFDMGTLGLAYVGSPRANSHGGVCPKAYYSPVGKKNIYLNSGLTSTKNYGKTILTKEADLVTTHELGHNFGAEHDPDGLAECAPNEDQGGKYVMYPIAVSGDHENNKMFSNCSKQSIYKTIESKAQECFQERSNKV
Method: as §1
The TACE Fluorometric Drug Discovery Kit (catalog #BML-AK310) is a complete assay system designed to screen ADAM17 (TACE) inhibitors using a quenched fluorogenic peptide: Mca-PLAQAV-Dpa-RSSSR—NH2. Mca fluorescence is quenched by the Dpa group until cleavage by proteases separates the two moieties leading to an increase in Mca fluorescence.
The inhibitory activity of the compounds of the invention against TACE was tested according to the manufacturer's assay protocol and the fluorescence was monitored at excitation/emission wavelengths=320 nm/420 nm using Tecan Infinite® 200 Pro F Nano^+ microplate reader.
as §4

[1] = thiopeptide substrate, absorbance 415 nm, read-out: MMP 2 IC50 class
[2] = thiopeptide substrate, absorbance 415 nm, read-out: MMP 9 IC50 class
[3] = thiopeptide substrate, absorbance 415 nm, read-out: MMP 13 IC50 class
[4] = thiopeptide substrate, absorbance 415 nm, read-out: MMP 1 IC50 class
[5] = quenched fluorogenic peptide, ex/em 320/420 nm, read-out: TACE IC50 class

SMILES	IC50 (MMP2; [1]) [µM]	IC50 (MMP9; [2]) [µM]	IC50 (MMP13; [3]) [µM]	IC50 (MMP1; [4]) [µM]	IC50 (ADAM17 (TACE); [5]) [µM]	IC50 (MMP1) [µM]	IC50 (MMP2) [µM]	IC50 (MMP9) [µM]	IC50 (MMP13) [µM]	IC50 (ADAM17 (TACE)) [µM]
COCCOC(=O)N1[C@@H]2CC[C@H]1[C@H](C(=O)NO)N(S(=O)(=O)c1cc(F)c(Oc3ccc(Cl)cc3)c(F)c1)C2 [Example 2, (1S,2R,5R)-2-methoxyethyl 3-((4-(4-chlorophenoxy)-3,5-difluoro-phenyl)sulfonyl)-2-(hydroxycarbamoyl)-3,8-diazabicyclo-[3.2.1]octane-8-carboxylate]	0.05 to 1	0.05 to 1	0.05 to 1							
COCCOC(=O)N1[C@H]2CC[C@@H]1[C@@H](C(=O)NO)N(S(=O)(=O)c1cc(F)c(Oc3ccc(Cl)cc3)c(F)c1)C2 [Example 3, 2-methoxyethyl (1R,2S,5S)-3-((4-(4-chlorophenoxy)-3,5-difluorophenyl)-sulfonyl)-2-(hydroxycarbamoyl)-3,8-diaza-bicyclo[3.2.1]octane-8-carboxylate]	1 to 10	1 to 10	1 to 10							
COCCOC(=O)N1[C@@H]2CC[C@H]1[C@H](C(=O)NO)N(S(=O)(=O)c1ccc(-c3cccc(F)c3)nc1)C2 [Example 4, 2-methoxyethyl (1S,2R,5R)-3-((6-(3-fluorophenyl)pyridin-3-yl)sulfonyl)-2-(hydroxycarbamoyl)-3,8-diaza-bicyclo[3.2.1]octane-8-carboxylate]	0.05 to 1	1 to 10	0.05 to 1							
COCCOC(=O)N1[C@@H]2CC[C@H]1[C@H](C(=O)NO)N(S(=O)(=O)c1cnc(Oc3ccc(F)cc3)c(F)c1)C2 [Example 6, 2-methoxyethyl (1S,2R,5R)-3-((5-fluoro-6-(4-fluoro-phenoxy)pyridin-3-yl)sulfonyl)-2-(hydroxycarbamoyl)-3,8-diazabicyclo[3.2.1]-octane-8-carboxylate]	< 0.05	< 0.05	< 0.05	1 to 10	1 to 10					
COCCOC(=O)N1[C@@H]2CC[C@H]1[C@H](C(=O)NO)N(S(=O)(=O)c1ccc(OC3CCC(OC)CC3)nc1)C2 (stereo partly drawn) [Example 11, 2-methoxyethyl (1S,2R,5R)-2-(hydroxycarbamoyl)-3-((6-((4-methoxy-cyclohexyl)oxy)-pyridin-3-yl)-sulfonyl)-3,8-diaza-bicyclo[3.2.1]octane-8-carboxylate]						1 to 10	< 0.05	< 0.05	0.05 to 1	1 to 10
COCCOC(=O)N1[C@@H]2CC[C@H]1[C@H](C(=O)NO)N(S(=O)(=O)c1ccc(OC3CCC(C)(C)CC3)nc1)C2 [Example 12, 2-methoxyethyl (1S,2R,5R)-3-((6-((4,4-dimethyl-cyclohexyl)-oxy)pyridin-3-yl)-sulfonyl)-2-(hydroxycarbamoyl)-3,8-diazabicyclo[3.2.1]-octane-8-carboxylate]	0.05 to 1	< 0.05	0.05 to 1	1 to 10	1 to 10					
COCCOC(=O)N1[C@@H]2CC[C@H]1[C@H](C(=O)NO)N(S(=O)(=O)c1ccc(OC3CCOCC3)nc1)C2 [Example 13, 2-methoxyethyl (1S,2R,5R)-2-(hydroxycarbamoyl)-3-((6-((tetrahydro-2H-pyran-4-yl)oxy)-pyridin-3-yl)sulfonyl)-3,8-diazabicyclo[3.2.1]-octane-8-carboxylate]	0.05 to 1	< 0.05	< 0.05	1 to 10	1 to 10					
COCCOC(=O)N1[C@@H]2CC[C@H]1[C@H](C(=O)NO)N(S(=O)(=O)c1ccc(Oc3ccc(F)cc3)cn1)C2 [Example 14, 2-methoxyethyl (1S,2R,5R)-3-((5-(4-fluorophenoxy)pyridin-2-yl)sulfonyl)-2-(hydroxycarbamoyl)-3,8-diazabicyclo[3.2.1]octane-8-carboxylate]	< 0.05	< 0.05	< 0.05	1 to 10	1 to 10					
COCCOC(=O)N1[C@@H]2CC[C@H]1[C@H](C(=O)NO)N(S(=O)(=O)c1ccc(Oc3cncc(Cl)c3)nc1)C2 [Example 15, (1S,2R,5R)-2-methoxyethyl 3-((6-((5-chloropyridin-3-yl)oxy)pyridin-3-yl)-sulfonyl)-2-(hydroxycarbamoyl)-3,8-diazabicyclo[3.2.1]-octane-8-carboxylate]	0.05 to 1	0.05 to 1	0.05 to 1	1 to 10	0.05 to 1					
COCCOC(=O)N1[C@@H]2CC[C@H]1[C@H](C(=O)NO)N(S(=O)(=O)c1ccc(Oc3ccc(C)nc3)nc1)C2 [Example 16, 2-methoxyethyl (1S,2R,5R)-2-(hydroxycarbamoyl)-3-((6-((6-methylpyridin-3-yl)-oxy)pyridin-3-yl)-sulfonyl)-3,8-diaza-bicyclo[3.2.1]octane-8-carboxylate]	< 0.05	0.05 to 1	0.05 to 1	1 to 10	1 to 10					
COCCOC(=O)N1[C@@H]2CC[C@H]1[C@H](C(=O)NO)N(S(=O)(=O)c1cnc(Oc3ccc(F)cc3)cn1)C2 [Example 17, 2-methoxyethyl (1S,2R,5R)-3-((5-(4-fluorophenoxy)-pyrazin-2-yl)sulfonyl)-2-(hydroxycarbamoyl)-3,8-diazabicyclo-[3.2.1]octane-8-carboxylate]	1 to 10	1 to 10	1 to 10	> 10	> 10					
COCCOC(=O)N1[C@@H]2CC[C@H]1[C@H](C(=O)NO)N(S(=O)(=O)c1ccc(Oc3nc4cc(F)ccc4o3)c(F)c1)C2 [Example 83, 2-methoxyethyl (1S,2R,5R)-3-((3-fluoro-4-((5-fluoro-benzo[d]oxazol-2-yl)oxy)phenyl)sulfonyl)-2-(hydroxy-carbamoyl)-3,8-diazabicyclo[3.2.1]-octane-8-carboxylate]	1 to 10	1 to 10	1 to 10							
COCCOC(=O)N1[C@@H]2CC[C@H]1[C@H](C(=O)NO)N(S(=O)(=O)c1ccc(Oc3nc4ccccc4o3)nc1)C2 [Example 84, 2-methoxyethyl (1S,2R,5R)-3-((6-(benzo[d]oxazol-2-yloxy)pyridin-3-yl)sulfonyl)-2-(hydroxycarbamoyl)-3,8-diazabicyclo[3.2.1]octane-8-carboxylate]	> 10	> 10	> 10							
